Results from patent publication US6863898B2, “Method and composition for treating hairy hoof warts” (priority 2002, dated 2005).

Tested on: hairy hoof warts
Assay: Footwrap application of aspirin compositions to infected hoofs of cows with hairy hoof warts
Type: in vivo
Details: topical; for healing of hairy hoof wart infections (result in words): 23 cubic centimeters in a footwrap left on the hoof about fourteen days
Description: In testing the method of the subject invention on cows with hairy hoof warts, an aspirin composition (100% aspirin powder) was administered to the infected hoof by incorporating the aspirin into a conventional footwrap and wrapping the footwrap about an animal's hoof so that the aspirin was applied to an infected area of an animal's hoof. The aspirin composition of the subject invention that includes about 75% by weight aspirin powder, about 5% by weight hydrated lime, about 15% by weight sodium bentonite, and about 5% by weight chalk was also tested in the same manner. With the application of the aspirin compositions to the infected hoof areas by this method, the infection progressively diminished and the hairy hoof warts were typically healed within about fourteen days. In the method of the subject invention for treating anchor preventing hairy hoof warts, an aspirin composition of 100% aspirin, a composition of another compound or derivative of salicylic acid of 100% of the other compound or derivative, an aspirin containing composition, or a composition containing another compound or derivative of salicylic acid is administered in an effective amount to an infected area of an animal's hoof or, as a preventive measure, to an area of an animal's hoof that could be infected. In a preferred embodiment of the method of the subject invention, the composition of or containing aspirin or another compound or derivative of salicylic acid is incorporated into a conventional footwrap, such as but not limited to a footwrap sold by Minnesota Mining and Manufacturing under the trade designation “[…]”. The footwrap is then applied to an animal's hoof with the composition being applied to the infected area of the hoof or, as a preventive measure, to an area of potential hoof infection. […]

CC(=O)Oc1ccccc1C(=O)O [100% aspirin powder, aspirin]
healing of hairy hoof wart infections (result in words) (listed as 100% powdered aspirin composition): successful in healing even severe hairy hoof wart infections | healing of hairy hoof wart infections (result in words) (listed as aspirin composition of 100% aspirin): appeared to achieve the best results | time until the hairy hoof warts were healed (composition in a conventional footwrap on the infected hoof area, typical value): fourteen
